Assay results published in PMC7663184, “Vitamin B3-Based Biologically Active Compounds as Inhibitors of Human Cholinesterases” (International Journal of Molecular Sciences, 2020).
“Also recorded” adds a separate entry of the source.

Tests used:
[1] = target: human BChE (Homo sapiens, UniProt P06276); assay: BChE reversible inhibition (Ellman's method, Hunter–Downs evaluation)
[2] = Cytotoxicity assay (MTS) on SH-SY5Y cells; format: cell-based; conditions: human; SH-SY5Y cells, MTS assay, 6.25–800 µM, mean of at least three experiments with standard error
Procedure: (§1) SH-SY5Y were grown in DMEM F12 (Sigma-Aldrich, Steinheim, Germany) supplemented with 15% (v/v) fetal bovine serum (Sigma-Aldrich, Steinheim, Germany), 1% (v/v) non-essential amino acids (NEAA, Sigma-Aldrich, Steinheim, Germany) and 1% (v/v) antibiotics solution Penicilin-Streptomycin (Sigma-Aldrich, Steinheim, Germany) while HEK293 were grown in EMEM (Sigma-Aldrich, Steinheim, Germany) supplemented with 10% (v/v) fetal bovine serum (Sigma-Aldrich, Steinheim, Germany), 1% (v/v) non-essential amino acids (NEAA, Sigma-Aldrich, Steinheim, Germany) and 1% (v/v) antibiotics solution Penicilin-Streptomycin (Sigma-Aldrich, Steinheim, Germany).
(§2) After cultivation, the cells were detached using 0.25% Trypsin/EDTA solution (Sigma-Aldrich, St. Louis, MO, USA), re-suspended and seeded at density of 20,000 cells/well in 96-well plates for experiments. The assay in 96-well was performed in 120 µL/well media volume. […] The procedure followed a previously described protocol and the manufacturer’s recommendations. […] Data was evaluated from at least two or three experiments (each in duplicate or triplicate) using IC50 nonlinear fit equation predefined in Prism6 software and presented as percentage of inhibition to control untreated cells.

[3] = Cytotoxicity assay (MTS) on HEK293 cells; format: cell-based
Procedure: as §1, §2

[4] = target: human AChE (Homo sapiens, UniProt P22303); assay: AChE reversible inhibition (Ellman's method, Hunter–Downs evaluation); format: biochemical; conditions: for Ki: human erythrocyte AChE, ATCh substrate, 0.1 M sodium phosphate buffer pH 7.4, at least three experiments, read-out: Ki ± SE AChE; for Ki (AChE)/Ki (BChE): selectivity ratio of measured Ki values
Sequence of human AChE (P22303 other isoform, or with tags, fused parts or gaps): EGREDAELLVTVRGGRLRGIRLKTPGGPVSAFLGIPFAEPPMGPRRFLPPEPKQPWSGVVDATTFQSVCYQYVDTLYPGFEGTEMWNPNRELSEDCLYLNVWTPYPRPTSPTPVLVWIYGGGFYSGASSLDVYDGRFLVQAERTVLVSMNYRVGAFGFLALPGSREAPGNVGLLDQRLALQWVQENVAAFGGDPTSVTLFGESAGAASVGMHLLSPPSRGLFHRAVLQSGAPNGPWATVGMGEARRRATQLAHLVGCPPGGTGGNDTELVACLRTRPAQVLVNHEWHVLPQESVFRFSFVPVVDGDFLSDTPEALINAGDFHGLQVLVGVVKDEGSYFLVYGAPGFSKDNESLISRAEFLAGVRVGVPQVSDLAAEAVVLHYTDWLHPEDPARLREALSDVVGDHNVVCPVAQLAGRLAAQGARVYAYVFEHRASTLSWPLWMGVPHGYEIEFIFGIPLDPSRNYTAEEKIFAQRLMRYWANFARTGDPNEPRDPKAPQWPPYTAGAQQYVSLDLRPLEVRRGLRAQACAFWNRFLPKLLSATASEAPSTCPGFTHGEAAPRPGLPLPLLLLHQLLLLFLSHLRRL
Text: The determined BChE phenotype was UU (usual).

[5] = system: SH-SY5Y cells; assay: Cytotoxicity assay (MTS) on SH-SY5Y cells; format: cell-based; conditions: 1-, 4- and 24-h treatment
Procedure: as §1, §2

[6] = system: phospho-Akt (Ser473); assay: Intracellular signalling by Western blot: phospho-Akt; format: cell-based, human; conditions: serum-starved HEK293 cells, 100 μM, 10 or 30 min, vs. Basal
Procedure: (§3) Intracellular signalling in the presence of the selected nicotinamide derivative was evaluated on HEK293 cells. To enhance attachment of HEK293 cells, 12-well plates were aseptically pre-coated with poly-lysin (50 µg/mL, 0.5 mL/well). After 1-h incubation, the solution was removed, surface rinsed with sterile demineralized water and allowed to dry for 1 h. HEK293 cells were seeded at a density of 300,000 cells/well in DMEM (1 g/L glucose, Gibco, Paisley, UK) supplemented with 10% (v/v) FBS (Gibco, Paisley, UK) and 1% (v/v) Pen-Strep (Gibco, Paisley, UK). The next day (after 20 h) the medium was replaced with DMEM without additions. The cells were serum-starved for 4 h. During the last 10 and 30 min, the cells were treated with 100 μM 3, 4, 5 or 8. Basal (control) samples were treated with vehicle (DMSO) for 30 min. At the end of the experiment, cells were washed with ice-cold PBS and lysed in Laemmli buffer (62.5 mM Tris-HCl (pH 6.8), 2% (w/v) sodium dodecyl sulfate (SDS), 10% (w/v) glycerol, 5% (v/v) 2-mercaptoethanol, 0.002% (w/v) bromophenol blue). The proteins were resolved with SDS-PAGE (precasted 4–12% polyacrylamide gels, Bio-Rad, CA, USA) and transferred to the PVDF membrane (Merck Millipore, Darmstadt, Germany) with wet electrotransfer using Criterion system and Bis-Tris gradient gels (Bio-rad, CA, USA). After the transfer, the membranes were stained with Ponceau S (0.1% (w/v) in 5% (v/v) acetic acid) to evaluate uniformity of sample loading and efficiency of transfer. The membranes were then blocked with 7.5% (w/v) dry milk in Tris-buffered saline with Tween 20 (TBST: 20 mM Tris, 150 mM NaCl, 0.02% (v/v) Tween 20, pH 7.5) for 1 h at room temperature. After blocking, the membranes were incubated with the primary antibody in the primary antibody buffer (20 mM Tris, 150 mM NaCl, pH 7.5, 0.1% (w/v) BSA and 0.1% (w/v) sodium azide) overnight at 4 °C and then with the secondary antibody-horseradish peroxidase conjugate (Bio-Rad, CA, USA) in TBST with 5% (w/v) dry milk for 1 h at room temperature. Finally, the membranes were incubated with enhanced chemiluminescence (ECL) reagent (Bio-Rad, CA, USA) and then immunolabelled proteins were visualized on X-ray films. Films were scanned with GS-800 Densitometer (Bio-Rad, CA, USA) and analysed with Quantity One 1-D 4.6.8 Analysis Software (Bio-Rad, CA, USA). […] Target proteins were detected using primary antibodies against phospho-Akt (Ser473, Cell Signaling #4060, Netherlands) phospho-ERK1/2 (Thr202/Tyr204, Cell Signaling #4370, Netherlands), phospho-S6 ribosomal protein (Ser235/236, Cell Signaling #2211, Netherlands), phospho-AMPK (Thr172, Cell Signaling #2535, Netherlands), phospho-acetyl-CoA carboxylase (Ser79, Cell Signaling #3661, Netherlands) and HIF-1α (Novus Biologicals NB100–449, CO, USA).

[7] = system: phospho-AMPK (Thr172); assay: Intracellular signalling by Western blot: phospho-AMPK; format: cell-based, human; conditions: serum-starved HEK293 cells, 100 μM, 10 or 30 min, vs. Basal
Procedure: as §3

[8] = system: HEK293 cells; assay: Cytotoxicity assay (MTS) on HEK293 cells; format: cell-based; conditions: for time dependence of cytotoxicity on HEK293 cells: 1-, 4- and 24-h treatment
Procedure: as §1, §2

[9] = system: phospho-S6RP (Ser235/236); assay: Intracellular signalling by Western blot: phospho-S6RP; format: cell-based, human; conditions: serum-starved HEK293 cells, 100 μM, 10 or 30 min, vs. Basal
Procedure: as §3

[10] = system: HIF-1α; assay: Intracellular signalling by Western blot: HIF-1α abundance; format: cell-based, human; conditions: serum-starved HEK293 cells, 100 μM, 10 or 30 min, vs. Basal
Procedure: as §3

[11] = system: phospho-ACC (Ser79); assay: Intracellular signalling by Western blot: phospho-ACC; format: cell-based, human; conditions: serum-starved HEK293 cells, 100 μM, 10 or 30 min, vs. Basal
Procedure: as §3

[12] = system: phospho-ERK1/2 (Thr202/Tyr204); assay: Intracellular signalling by Western blot: phospho-ERK1/2; format: cell-based, human; conditions: serum-starved HEK293 cells, 100 μM, 10 or 30 min, vs. Basal
Procedure: as §3

[13] = target: AChE; conditions: ratio of literature Ki values from [47], [48],[49]
[14] = target: AChE; conditions: ref [47]; cited from earlier work
[15] = target: BChE; conditions: cited from earlier work
[16] = human, HEK293 cells, MTS assay, 6.25–800 µM, mean of at least three experiments with standard error

Sequence of human BChE (P06276 29-602): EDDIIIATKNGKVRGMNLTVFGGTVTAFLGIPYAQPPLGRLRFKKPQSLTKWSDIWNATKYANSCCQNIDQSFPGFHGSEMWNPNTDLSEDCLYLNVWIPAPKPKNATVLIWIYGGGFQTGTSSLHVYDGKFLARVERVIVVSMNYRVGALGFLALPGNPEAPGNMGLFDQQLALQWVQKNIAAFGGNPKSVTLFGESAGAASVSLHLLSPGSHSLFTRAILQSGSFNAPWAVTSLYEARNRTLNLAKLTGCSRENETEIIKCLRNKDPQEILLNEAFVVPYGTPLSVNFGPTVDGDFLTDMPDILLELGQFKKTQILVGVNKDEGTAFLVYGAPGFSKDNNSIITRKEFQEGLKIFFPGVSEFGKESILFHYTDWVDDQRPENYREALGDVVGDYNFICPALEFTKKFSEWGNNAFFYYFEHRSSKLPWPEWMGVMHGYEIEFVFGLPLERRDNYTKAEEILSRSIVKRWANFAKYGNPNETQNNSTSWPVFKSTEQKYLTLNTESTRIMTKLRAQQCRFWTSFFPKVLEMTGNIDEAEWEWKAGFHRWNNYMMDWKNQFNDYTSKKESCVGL

SMILES	Ki [1] [µM]	IC50 [2] [µM]	IC50 [3, 16] [µM]	Ki [4] [µM]	Ki (AChE)/Ki (BChE) [4]	time dependence of cytotoxicity on SH-SY5Y cells [5]	phosphorylation of Akt (Ser473) [6]	phosphorylation of AMPK (Thr172) [7]	time dependence of cytotoxicity on HEK293 cells [8]	phosphorylation of S6RP (Ser235/236) [9]	abundance of HIF-1α [10]	phosphorylation of ACC (Ser79) [11]	phosphorylation of ERK1/2 (Thr202/Tyr204) [12]	IC50 ([8]; HEK293 cells, MTS assay, 6.25–800 µM, mean of at least three experiments with standard error) [µM]	preference for binding to AChE over BChE ([4]; selectivity from Ki values)	IC50 ([3]; human; HEK293 cells, MTS assay, 6.25–800 µM, mean of at least three experiments with standard error) [µM]	Ki (AChE)/Ki (BChE) [13]	Ki [14] [µM]	Ki ([15]; ref [47]) [µM]	IC50 ([15]; IC50 values per footnote 3, ref [50]) [µM]
NC(=O)c1ccc[n+](CC(=O)c2ccccc2)c1 [Compound 1]	232 ± 20	≥ 800	≤ 800	79 ± 11	0.34															
NC(=O)c1ccc[n+](CC(=O)c2ccc(F)cc2)c1 [Compound 2]	595 ± 73	≥ 800	≥ 800	85 ± 15	0.14															
NC(=O)c1ccc[n+](CC(=O)c2ccc(Cl)cc2)c1 [Compound 3]	224 ± 23	≤ 800	~85	33 ± 5	0.15	time-dependent mechanism	suppressing	did not respond	time-dependent mechanism	increased	not statistically significant	did not respond	tended to transiently increase							
NC(=O)c1ccc[n+](CC(=O)c2ccc(Br)cc2)c1 [Compound 4]	47 ± 15	501 ± 2	~85	11 ± 3	0.23	time-dependent mechanism	suppressing	did not respond	time-dependent mechanism	increased	increased	did not respond	tended to transiently increase	83 ± 1						
NC(=O)c1ccc[n+](CC(=O)c2ccc([N+](=O)[O-])cc2)c1 [Compound 5]	145 ± 24	214 ± 5	417 ± 1	39 ± 5	0.27	time-dependent mechanism	markedly pronounced	markedly increased	time-dependent mechanism	decreased	unaltered	markedly increased	reached statistical significance; also recorded: marked increase							
Cc1ccc(C(=O)C[n+]2cccc(C(N)=O)c2)cc1 [Compound 6]	242 ± 22	≥ 800	≤ 800	3 ± 1	0.01										up to 80 times					
COc1ccc(C(=O)C[n+]2cccc(C(N)=O)c2)cc1 [Compound 7]	216 ± 34	≥ 800	≥ 800	19 ± 2	0.08															
NC(=O)c1ccc[n+](CC(=O)c2ccc(-c3ccccc3)cc2)c1.[Br-] [Compound 8, 1-(4′-phenylphenacyl)-3-carbamoylpyridinium bromide]		257 ± 1		4 ± 0.2	0.50	time-dependent mechanism	markedly pronounced	not significantly altered		unaltered	increased	increased phosphorylation	reached statistical significance; also recorded: marked increase			155 ± 1				
COc1ccccc1C(=O)C[n+]1cccc(C(N)=O)c1 [Compound 9]	180 ± 18	≥ 800	≥ 800	26 ± 4	0.14															
CCN(CC)C(C)CN1c2ccccc2Sc2ccccc21 (stereo not drawn) [Ethopropazine]																	1010	161	0.16	
